Source: ChEMBL document CHEMBL1145370, “Alpha-methylation at benzylic fragment of N-aryl-N'-benzyl ureas provides TRPV1 antagonists with better pharmacokinetic properties and higher efficacy in inflammatory pain model” (Bioorg Med Chem Lett, 2007)

Key:
[1] = Volume of distribution in dog at 10 umol/kg, iv; assay type: ADME, organism-based, Canis lupus familiaris; conditions: in vivo, read-out: Vbeta
[2] = Plasma clearance in rat at 10 umol/kg, iv; assay type: ADME, organism-based
[3] = Half life in dog at 10 umol/kg, iv; assay type: ADME, organism-based, Canis lupus familiaris; conditions: in vivo
[4] = Bioavailability in dog at 10 umol/kg, po; assay type: ADME, organism-based, Canis lupus familiaris; conditions: in vivo
[5] = Volume of distribution in rat at 10 umol/kg, iv; assay type: ADME, organism-based; conditions: in vivo, read-out: Vbeta
[6] = Half life in rat at 10 umol/kg, iv; assay type: ADME, organism-based; conditions: in vivo
[7] = Plasma clearance in dog at 10 umol/kg, iv; assay type: ADME, organism-based, Canis lupus familiaris
[8] = target: Transient receptor potential cation channel subfamily V member 1 (Homo sapiens, UniProt Q8NER1); experiment: Antagonist activity at human TRPV1 by calcium influx assay; assay type: functional
Sequence of Transient receptor potential cation channel subfamily V member 1 (Q8NER1 whole entry): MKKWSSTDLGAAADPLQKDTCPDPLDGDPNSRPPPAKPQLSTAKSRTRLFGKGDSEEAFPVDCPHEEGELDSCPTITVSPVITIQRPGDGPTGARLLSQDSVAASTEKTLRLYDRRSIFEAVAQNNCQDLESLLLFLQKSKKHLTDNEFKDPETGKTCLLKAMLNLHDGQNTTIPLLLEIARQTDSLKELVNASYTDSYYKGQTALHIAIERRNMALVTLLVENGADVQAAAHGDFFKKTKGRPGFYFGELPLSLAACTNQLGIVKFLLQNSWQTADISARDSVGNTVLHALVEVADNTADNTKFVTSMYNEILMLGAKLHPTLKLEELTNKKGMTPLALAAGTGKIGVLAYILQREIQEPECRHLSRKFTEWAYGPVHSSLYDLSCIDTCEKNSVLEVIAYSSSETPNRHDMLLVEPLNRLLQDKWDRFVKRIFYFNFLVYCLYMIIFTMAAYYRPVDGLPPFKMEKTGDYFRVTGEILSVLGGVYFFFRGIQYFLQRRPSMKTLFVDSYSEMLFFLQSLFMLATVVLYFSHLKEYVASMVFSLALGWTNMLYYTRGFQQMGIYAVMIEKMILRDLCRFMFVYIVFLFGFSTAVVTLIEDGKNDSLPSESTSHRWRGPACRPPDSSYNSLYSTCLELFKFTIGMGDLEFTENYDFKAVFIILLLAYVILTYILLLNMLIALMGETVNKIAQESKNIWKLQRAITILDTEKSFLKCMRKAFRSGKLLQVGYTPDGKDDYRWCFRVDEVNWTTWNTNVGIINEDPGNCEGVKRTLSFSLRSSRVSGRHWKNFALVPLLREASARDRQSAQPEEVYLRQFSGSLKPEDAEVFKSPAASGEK

[9] = Bioavailability in rat at 10 umol/kg, po; assay type: ADME, organism-based; conditions: in vivo

IC50 [8] | Structure (SMILES) | also measured
147 nM | O=C(Nc1cccc2cnccc12)NC(c1ccccc1)c1ccc(C(F)(F)F)cc1 (stereo not given) | 
171 nM | O=C(Nc1cccc2cnccc12)NC(c1ccccc1)c1ccc(N2CCCCC2)cc1 (stereo not given) | 
2580 nM | CCC(NC(=O)Nc1cccc2cnccc12)c1ccccc1 (stereo not given) | 
15900 nM | N#CCC(NC(=O)Nc1cccc2cnccc12)c1ccccc1 (stereo not given) | 
149 nM | O=C(Nc1cccc2cnccc12)NC(c1ccc(C(F)(F)F)cc1)C1CC1 (stereo not given) | 
287 nM | O=C(Nc1cccc2cnccc12)NC(c1ccc(C(F)(F)F)cc1)C1CCCCC1 (stereo not given) | 
22 nM | CC(NC(=O)Nc1cccc2cnccc12)c1ccc(C(F)(F)F)cc1 (stereo not given) | Vd [1]: 1.1 L/kg; clearance [2]: 11.7 mL/min/kg; half-life [3]: 1.6 h; bioavailability [9]: 47%; bioavailability [4]: 98%; Vd [5]: 1.1 L/kg; half-life [6]: 1.1 h; clearance [7]: 8.33 mL/min/kg
31000 nM | CN(C)CC(NC(=O)Nc1cccc2cnccc12)c1ccccc1 (stereo not given) | 
476 nM | O=C(Nc1cccc2cnccc12)NC(c1ccc(C(F)(F)F)cc1)C1CCCC1 (stereo not given) | 
125 nM | CC(C)(C)c1ccc(C(NC(=O)Nc2cccc3cnccc23)c2ccccc2)cc1 (stereo not given) | 
600 nM | O=C(Nc1cccc2cnccc12)NC(c1ccccc1)c1ccccc1 | 
26 nM | CC(NC(=O)Nc1cccc2cnccc12)c1ccc(Br)cc1 (stereo not given) | 

More lines, now with the values behind:

Structure (SMILES) | IC50 [8] | also measured
O=C(NCc1ccc(C(F)(F)F)cc1)Nc1cccc2cnccc12 |  | Vd [1]: 0.5 L/kg; clearance [2]: 10 mL/min/kg; half-life [3]: 1 h; bioavailability [4]: 32%; Vd [5]: 0.6 L/kg; half-life [6]: 0.6 h; clearance [7]: 6.67 mL/min/kg
CC(NC(=O)Nc1cccc2cnccc12)c1ccc(C(C)(C)C)cc1 (stereo not given) | 24 nM | 
CC(NC(=O)Nc1cccc2cnccc12)c1ccc(C(F)(F)F)c(F)c1 (stereo not given) | 19 nM | 
Cc1cc(C(C)(C)C)ccc1C(C)NC(=O)Nc1cccc2cnccc12 (stereo not given) | 46 nM | 
CCc1cc(C(C)(C)C)ccc1C(C)NC(=O)Nc1cccc2cnccc12 (stereo not given) | 20 nM | 
CC(NC(=O)Nc1cccc2cnccc12)c1ccc(C(C)(C)C)cc1C(C)(C)C (stereo not given) | 17 nM | 
CC(C)(NC(=O)Nc1cccc2cnccc12)c1ccc(Cl)cc1 | 143 nM | 
CC(C)(NC(=O)Nc1cccc2cnccc12)c1ccc(C(F)(F)F)cc1 | 94 nM | 
C[C@@H](NC(=O)Nc1cccc2[nH]ncc12)c1ccc(C(F)(F)F)cc1 | 41 nM | bioavailability [9]: 53%; Vd [5]: 2.9 L/kg; half-life [6]: 2.1 h
Cc1ccc([C@H](C)NC(=O)Nc2cccc3[nH]ncc23)cc1 | 749 nM | 
C[C@H](NC(=O)Nc1cccc2[nH]ncc12)c1cccc2ccccc12 | 3750 nM | 
C[C@H](NC(=O)Nc1cccc2[nH]ncc12)c1ccc(C(F)(F)F)cc1 | 248 nM | 
C[C@@H](NC(=O)Nc1cccc2[nH]ncc12)c1cccc2ccccc12 | 123 nM | 
Cc1ccc([C@@H](C)NC(=O)Nc2cccc3[nH]ncc23)cc1 | 73 nM | 
CCC(NC(=O)Nc1cccc2cnccc12)c1ccc(C(F)(F)F)c(F)c1 (stereo not given) | 109 nM | 
CC(NC(=O)Nc1cccc2[nH]ncc12)c1ccc(C(F)(F)F)cc1 (racemic) | 47 nM | 
